# US20220119446A1, “BIOMARKERS AND TREATMENT OF NEURONAL INJURY AND NEURODEGENERATION” (Board of Supervisons of Louisiana State University and …, priority 2018, published 2022)
# Entries after “also recorded” stand apart in the source; their conditions may differ.
# Tests used:
# Type in all cases: cell-based, human
# ARPE-19 cells and hpRPE = test: Apoptosis by Hoechst staining in RPE cells under UOS
# Protocol: ARPE-19 cells, can be plated and grown in DMEM/F-12 containing 10% FBS and 1× penicillin/streptomycin at 37° C., 5% CO2, 99% relative humidity for 24 h. […] 15-LOX-1 deficient cells can be maintained in the same medium as ARPE-19 with the addition of 500 μg/mL Geneticin (Life Technologies Corporation, Carlsbad, Calif.). Transfection can be performed in all cases using Lipofectamine 2000 (Life Technologies Corporation, Carlsbad, Calif.) following the manufacturer's recommendations. […] Experiments with transfection efficiency that yielded less than 80% can be discarded. For siRNA, we used 6 μl of Lipofectamine 2000 per 50 pmol of siRNA per mL of incubation medium, and, for plasmids, we used 6 μl of Lipofectamine 2000 per 2 μg of plasmid per mL of incubation medium. Cells can be incubated for 5 hours at 37° C., 5% CO2 and 99% relative humidity. […] When siRNA/plasmid co-transfection is required, siRNA and plasmid-carrying transfection mixes can be prepared separately and added one after the other in the same well. Oxidative stress treatments can be performed using 600 (ARPE-19) or 1600 (hRPE) μM H2O2, along with 10 ng/mL TNFα, for the required time indicated in each experiment. The treatment we used employed the low serum (0.5% serum) without hFGF. Treatment to induce uncompensated oxidative stress (UOS) can be performed after 8 hours of low-serum medium incubation unless specifically noted. Wnt5a, Wnt3a or NPD1 can be added immediately before induction of UOS. In the secretion experiments, Pitstop 2 can be added to the medium 2 hours before harvesting.
# (§1) Immunostaining can be performed in 8-well slide chambers and the Hoechst staining in 24-well plates. […] Briefly, cells can be fixed using 4% paraformaldehyde in PBS 1× for 20 min at room temperature or overnight at 4° C. After three washes with PBS, cells can be permeabilized using 0.1% Triton™ X-100 for five minutes and blocked using 10% normal serum and 1% BSA for one hour. […] Hoechst staining can be performed using same protocol of fixation. In one embodiment, permeabilization is done using methanol for 20 min at room temperature. […] Dying cells can be identified by size (0 to 50 pixels), intensity threshold, and circularity. The ratio of hyperpyknotic cells over the total can be calculated for nine randomly chosen fields per sample obtained from three independent wells per experiment. Each experiment can be repeated at least three times to confirm the findings.
# ARPE-19 cells, were plated and grown in DMEM/F-12 containing 10% FBS and 1× penicillin/streptomycin at 37° C., 5% CO2, 99% relative humidity for 24 h. […] 15-LOX-1 deficient cells were maintained in the same medium as ARPE-19 with the addition of 500 μg/mL Geneticin (Life Technologies Corporation). Transfection was performed in all cases using Lipofectamine 2000 (Life Technologies Corporation) following the manufacturer's recommendations. […] Experiments with transfection efficiency that yielded less than 80% were discarded. For siRNA, we used 6 μl of Lipofectamine 2000 per 50 pmol of siRNA per mL of incubation medium, and, for plasmids, we used 6 μl of Lipofectamine 2000 per 2 μg of plasmid per mL of incubation medium. Cells were incubated for 5 hours at 37° C., 5% CO2 and 99% relative humidity. […] When siRNA/plasmid co-transfection was required, siRNA and plasmid-carrying transfection mixes were prepared separately and added one after the other in the same well. […] The treatment we used employed the low serum (0.5% serum) without hFGF. Treatment to induce uncompensated oxidative stress (UOS) was performed after 8 hours of low-serum medium incubation unless specifically noted. Wnt5a, Wnt3a or NPD1 was added immediately before induction of UOS.
# Wnt5a/FZD5 = test: Immunocytochemistry of Wnt5a/FZD5 colocalization and vesicles in hpRPE cells; conditions: for number of Wnt5a/FZD5 colocalized vesicles per field: hpRPE, UOS 1600 μM H2O2, 2 hours, +/− 50 ng/ml Wnt5a, no Pitstop2
# Protocol: To ascertain localization and interaction between FZD5 and Wnt5a we incubated hpRPE undergoing UOS with Wnt5a+/−NPD1 or other lipid mediators.
# as §1
# In an embodiment involving early stages of apoptosis, the total number of cells per field is assessed and counted to ensure unbiased observations. […] Settings can be adjusted in the conditions that show higher intensity and can be used throughout the remaining samples. In an embodiment, Pearson's colocalization coefficient (PCC) is obtained using FV1200 analysis software for every field in each experiment, and the mean and SEM are depicted in FIGS. 7-11.
# Immunostaining was performed in 8-well slide chambers and the Hoechst staining in 24 well plates. […] Briefly, cells were fixed using 4% paraformaldehyde in PBS 1× for 20 min at room temperature or overnight at 4° C. After three washes with PBS, cells were permeabilized using 0.1% Triton™ X-100 for five minutes and blocked using 10% normal serum and 1% BSA for one hour. […] Hoechst staining was performed using same protocol of fixation, but permeabilization was done using methanol for 20 min at room temperature. […] Dying cells were identified by size (0 to 50 pixels), intensity threshold and circularity. The ratio of hyperpyknotic cells over the total was calculated for nine randomly chosen fields per sample obtained from three independent wells per experiment. Each experiment was repeated at least three times to confirm the findings. In the experiments involving early stages of apoptosis, we assessed the total number of cells per field and counted them to ensure unbiased observations. […] Pearson's colocalization coefficient (PCC) was obtained using FV1200 analysis software for every field in each experiment, and the mean and SEM are depicted in Figures S1-S5. […] IMARIS software analysis was performed building a colocalization channel using the Costes thresholding, and the colocalized elements were analyzed using the spots function using the settings different spots sites, background subtraction and local contrast. The output obtained consisted on a collection of sizes (one per element in each picture) or the mean of the intensity in each spot.
# Wnt5a = test: Western blot of secreted (sWnt5a) and cellular (cWnt5a) Wnt5a in RPE cells under UOS
# Protocol: To monitor transcription, translation, and secretion of Wnt5a, we performed western blot assays using cellular lysates and medium from hpRPE undergoing UOS+/−NPD1 at different time points. Medium was precipitated using Methanol/Chloroform to bring down all secreted Wnt5a.
# The pellet can be re-suspended and denatured in 100 μl of 2× Laemmli sample buffer (Bio-Rad Laboratories, Hercules, Calif.) at 95° C. for 5 min. MCAo brain tissue and cell samples can be homogenized using RIPA (Thermo Fisher Scientific, Waltham, Mass.) buffer supplemented with protease and phosphatase inhibitor cocktails (Millipore Sigma, Burlington, Mass.). In embodiments, the amount of 30 μg of total protein is loaded in NuPAGE® Novex® 4-12% Bis-Tris precast gels (Life Technologies Corporation, Carlsbad, Calif.) and run at constant 120V for about 1 hour and 20 min. Proteins can be transferred to μm Nitrocellulose membrane using Bio-Rad Trans-Blot® Turbo™ System (Bio-Rad Laboratories, Hercules, Calif.). ECL™ Plex Fluorescent Rainbow Markers (GE Healthcare, Chicago, Ill.) can be used as the ladder for protein's molecular weight. Membranes can be blocked using 5% non-fat dry milk (Bio-Rad Laboratories, Hercules, Calif.) in TBS with 1% Tween® 20 (TBST-10×) (Croda International, Snaith, United Kingdom) for 1 hour and incubated overnight with primary antibodies. Anti-mouse or anti-rabbit secondary antibodies conjugated with Cy3 or Cy5 can be used to visualize the protein of interest. Immunoblots can be documented using LAS 4000 imaging system (GE Healthcare Life Sciences, Marlborough, Mass.). A time course exposition can be produced in each case to prevent quantification of saturated images. In embodiments, densitometry data are obtained using ImageQuant™ TL software (GE Healthcare Life Sciences, Marlborough, Mass.).
# The pellet was re-suspended and denatured in 100 μl of 2× Laemmli sample buffer (Bio-Rad Laboratories) at 95° C. for 5 min. MCAo brain tissue and cell samples were homogenized using RIPA (Thermo Fisher Scientific) buffer supplemented with protease and phosphatase inhibitor cocktails (Sigma). The amount of 30 μg of total protein was loaded in NuPAGE® Novex® 4-12% Bis-Tris precast gels (Life Technologies Corporation) or Mini-PROTEAN TGX Stain free gels 4-15% and ran at constant 120V for 1 hour and 20 min or 250 V for 40 min respectively. Proteins were transferred to μm Nitrocellulose or LF-PVDF membrane using Bio-Rad Trans-Blot® Turbo™ System (Bio-Rad Laboratories). ECL™ Plex Fluorescent Rainbow Markers (GE Healthcare) were used as the ladder for protein's molecular weight. […] A time course exposition was produced in each case to prevent quantification of saturated images. […]
# NF-κB/p65 = NF-κB/p65 luciferase reporter assay in hpRPE cells; conditions: hpRPE under UOS in the presence of Wnt5a 50 ng/ml; NPD1 100 or 200 nM; Pitstop2 25 μM
# Protocol: We asked if Wnt5a activates inflammatory signaling to enhance apoptosis mediated by UOS by assessing COX-2 promoter activation (FIG. 10). […] To compare Wnt5a effects with other cytokines that enhance COX-2 expression, Interleukin-1β (IL-1β) activity was measured. […] To determine if Wnt5a activates NF-κB, hpRPE were transfected with a construct that encompassed three p65 high-affinity binding sites in tandem, driving the expression of the luciferase reporter gene (FIG. 1G). […] To assess whether or not FDZ5 and ROR2 were involved in NF-κB activation by Wnt5a, cells were co-transfected with siRNAs targeting the two receptors (FIG. 11).
# (§2) Except TOP/FOP flash, the Luciferase activity can be standardized using a construct expressing GFP constitutively under CMV virus promoter. To assess luciferase activity, cell lysates can be obtained using Passive Lysis Buffer (Promega, Madison, Wis.) and mixed with a luciferase assay reagent (Promegam Madison, Wis.). Chemiluminescence produced by luciferase and fluorescence from GFP can be detected using Appliscan 2.3. Data can be analyzed using SkanIt 2.3 (Thermo Fisher Scientific, Waltham, Mass.).
# Except TOP/FOP flash, the Luciferase activity was standardized using a construct expressing GFP constitutively under CMV virus promoter. To assess luciferase activity, cell lysates were obtained using Passive Lysis Buffer (Promega) and mixed with a luciferase assay reagent (Promega). Chemiluminescence produced by luciferase and fluorescence from GFP was detected using Appliscan 2.3. Data were analyzed using SkanIt 2.3 (Thermo Fisher Scientific).
# COX-2 promoter = COX-2 promoter luciferase reporter assay; conditions: ARPE-19 cells; 50 ng/ml Wnt5a or 20 ng/ml IL1-β
# Source text: as §2
# A, Design of luciferase reporter assay performed with COX-2 promoter construct. UOS was induced by the addition of 10 ng/ml TNFα and 600 μM H2O2 in ARPE-19 cells. The concentrations of Wnt5a used was 50 ng/ml. Cells were co-transfected with the constructs driving the expression of luciferase and a plasmid that constitutively expressed green fluorescent protein for standardization. Luciferase activity is denoted in luciferase activity units (LUC) and standardized using GFP fluorescent (GFP). B, Wnt5a and IL-1β effect time course on COX-2 promoter activity. […] Luciferase activity (LUC) was measured in ARPE-19 cells in the presence of 50 ng/ml Wnt5a or 20 ng/ml IL1-β. […] Luciferase activity measured in cells incubated with 50 ng/ml Wnt5a in the presence or absence of 100 nM (+) and 200 nM (++) NPD1.
compound,measurement,setting,value
CC/C=C\C/C=C\C[C@H](O)\C=C/C=C/C=C/[C@H](O)C/C=C\CCC(=O)O [Maresin-1],UOS-dependent NFkB activation and apoptosis (FIG. 18B legend),ARPE-19 cells and hpRPE,counteracted these effects
O=C1NC(=NS(=O)(=O)c2cccc3ccccc23)S/C1=C\c1ccc(Br)cc1 [Pitstop2],number of Wnt5a/FZD5 co-localized vesicles in the presence of Pitstop2,"Wnt5a/FZD5; 25 μM Pitstop2, control and UOS treated cells, rWnt5a added",prevented the increased in Wnt5a/FZD5 co-localized vesicles; also recorded: inhibition produced by Box5 was reverted
same,cellular Wnt5a (cWnt5a) abundance,Wnt5a; cells undergoing UOS+/−NPD1 and Pitstop2,did not modify cWnt5a abundance
same,secreted Wnt5a (sWnt5a) in medium,"Wnt5a; hpRPE cells under UOS, Pitstop2 added 2 hours before harvesting",reverted the effect of NPD1 on sWnt5a; also recorded: increase in secreted Wnt5a; also recorded: increase in sWnt5a
same,NF-κB/p65 activation (luciferase),NF-κB/p65,decreases the activation of p65/NF-κB; also recorded: interferes with the activation of NF-κB/p65; also recorded: decreases the activation of p65/NFkB; also recorded: interferes with the activation of NFkB/p65
"CCC=CCC(O)C=CC=CC=CC(O)CC=CCC=CCCC(=O)O (centres unmarked) [10R, 17R diHDHA]",number of Wnt5a/FZD5 colocalized vesicles per field,Wnt5a/FZD5,decreased the amount of vesicles per field
same,number of Wnt5a/FZD5 colocalized vesicles per field,"Wnt5a/FZD5; listed as NPD1 stereoisomer, of 10-R, 17R configuration",showed the same effect as NPD1
same,UOS-dependent NFkB activation and apoptosis (FIG. 18B legend),ARPE-19 cells and hpRPE,counteracted these effects
"CC/C=C\C[C@H](O)/C=C/C=C\C=C\C=C\[C@@H](O)[C@@H](O)C/C=C\CCC(=O)O [RvD1, 7S,8R,17S-trihydroxy-DHA]",UOS-dependent NFkB activation and apoptosis (FIG. 18B legend),ARPE-19 cells and hpRPE,counteracted these effects
"IL-1 β: cytokine that enhances COX-2 expression, used for comparison with Wnt5a",COX-2 promoter activation (luciferase),COX-2 promoter,growing staggered pattern of COX-2 promoter activation through at least 16 hours
"CC/C=C\C[C@H](O)[C@H](O)/C=C/C=C/C=C\C=C\[C@@H](O)C/C=C\CCC(=O)O [RvD2, 7S,16R,17S-trihydroxy-DHA]",UOS-dependent NFkB activation and apoptosis (FIG. 18B legend),ARPE-19 cells and hpRPE,counteracted these effects
